Data: patent publication US4552893A, “Leukotriene antagonists” (SmithKline Beckman Corporation, priority 1983, dated 1985)

Target: T1, leukotriene induced contraction of guinea pig tracheal tissues (LTD4) (Cavia porcellus, UniProt Q2NNR5)
T1 construct: Guinea pig (adult male albino Hartley strain) tracheal spiral strips; from tissue; host or cells: guinea pig (adult male albino Hartley strain) tracheal spiral strips
T1 sequence (Q2NNR5 1-340): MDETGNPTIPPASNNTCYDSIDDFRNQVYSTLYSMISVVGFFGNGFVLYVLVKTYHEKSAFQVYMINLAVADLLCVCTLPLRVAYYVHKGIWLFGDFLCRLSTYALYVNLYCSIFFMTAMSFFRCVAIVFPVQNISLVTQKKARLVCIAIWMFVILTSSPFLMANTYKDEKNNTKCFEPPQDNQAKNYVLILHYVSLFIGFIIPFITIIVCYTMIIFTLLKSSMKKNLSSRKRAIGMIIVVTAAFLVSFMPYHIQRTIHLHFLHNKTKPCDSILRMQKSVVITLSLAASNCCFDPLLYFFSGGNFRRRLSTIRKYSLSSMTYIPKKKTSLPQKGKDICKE
Test: Inhibition of LTD4-induced contraction of guinea pig tracheal spiral strips in vitro (leukotriene antagonist activity)
Assay type: cell-based
Conditions: LTD4 cumulative concentration-response, 30 min pretreatment with test compound, meclofenamic acid 1 μM, pA2 = -log KB from EC30 (30% of carbachol contraction)
Procedure: The leukotriene antagonist activity of the compounds of this invention is measured by the ability of the compound to inhibit leukotriene induced contraction of guinea pig tracheal tissues in vitro. The following methodology was employed:
In vitro: Guinea pig (adult male albino Hartley strain) tracheal spiral strips of approximate dimensions 2 to 3 mm cross-sectional width and 3.5 cm length were bathed in modified Krebs buffer in jacketed 10 ml tissue bath and continously aerated with 95% O2 /5% CO2. The tissues were connected via silk suture to force displacement transducers for recording isometric tension. The tissues were equilibrated for 1 hr., pretreated for 15 minutes with meclofenamic acid (1 μM) to remove intrinsic prostaglandin responses, and then pretreated for an additional 30 minutes with either the test compound or vehicle control. A cumulative concentration-response curve for LTD4 on triplicate tissues was generated by successive increases in the bath concentration of the LTD4. […]
Calculations: The averages of the triplicate LTD4 concentration-response curves both in the presence and absence of the test compound were plotted on log graph paper. The concentration of LTD4 needed to elicit 30% of the contraction elicited by carbachol was measured and defined as the EC30. The pA2 value for the test compound was determined by the following equations: [formula] […]

Kb: 6.31 µM
Structure (SMILES): CCCCCCCCCCCC/C=C\C(SCCC(=O)O)C(O)CO (stereo not shown) [3-[(2-Carboxyethyl)thio]-4(Z)-heptadecen-1,2-diol]
